Measured values: PMC11881906, “Development of xanthone derivatives as effective broad-spectrum antimicrobials: Disrupting cell wall and inhibiting DNA synthesis” (Science Advances, 2025)

What was measured:
E. coli ATCC 25922 = experiment: RNA-seq transcriptome response; assay type: cell-based, Escherichia coli; conditions: 4× MIC, 2 hours
Protocol: After exposure, 1-ml aliquots of cells were immediately pelleted at 4°C by centrifugation for 2 min at 2000 rpm. The supernatants were removed and immediately frozen in liquid nitrogen. The samples were stored at −80°C for later total RNA isolation. Total RNA was extracted using the bacterial RNA kit (Omega Bio-Tek, USA) according to the manufacturer’s instructions. The RNA integrity number values were obtained to assess RNA quality using an Agilent Genomics 2200 Tape Station instrument.
A total amount of 2 to 5 ng of the RNA per sample was executed as the input material to construct each cDNA library for RNA-seq using the NEBNext Ultra Directional RNA Library prep kit from Illumina. The quality of the resulting libraries was checked using Agilent High Sensitivity DNA chips to ensure proper library size distribution and the absence of small adapters.
Read mapping was aligned using Bowtie2 ([74]). HTSeq v0.6.1 was used for quantification of expression levels ([75]). DESeq2 on the R package (v1.12.4) was used to calculate DEGs. Differential expression was computed using edgeR: exactTest for each treatment versus the untreated control ([76]). The E. coli database used for mapping was GCF_017357505.1_ASM1735750v1_genomic.fna. Both the GO and KEGG (KEGG Ortholog database) enrichment analyses were done with the Fisher’s exact test. All P values were adjusted with the Benjamini-Hochberg procedure to generate false discovery rates (adjusted P values). GO enrichment analysis was carried out using the clusterProfiler package on the R platform ([77]). KEGG pathway mapping and figure generation were performed with the PathView website ([78]). COG of protein databases were searched with an E value of 1e^-5. For hierarchal clustering analysis of gene expression, the gene expression levels were normalized to z scores of log10 (FPKM + 1), where FPKM is fragments per kilobase per million. For hierarchal clustering analysis of the regulation of transcription factors, the unweighted pair group method with arithmetic mean (UPGMA) method was used as the clustering method. […] Volcano plots were generated by plot_volcano from soothsayer (https://github.com/jolespin/soothsayer) in Python v.3.6.6. Directed networks were constructed and plotted using NetworkX and Matplotlib Python packages, respectively. Hierarchical clustering analysis and heatmap calculation were performed with the pheatmap package on the R platform. The umap package on the R platform was used for uniform manifold approximation and projection (UMAP) analysis of FPKM vectors of each transcriptome. The figures were created via the ggplot2 package ([79]).

E. coli DNA = experiment: Electrophoretic mobility shift assay; assay type: binding, Escherichia coli; conditions: 8× MIC
Protocol: Isolation of DNA from pure culture of E. coli ATCC 25922 was carried out by the TIANamp bacterial DNA kit (TIANGEN, China) according to the manufacturer’s instructions. […] A loading buffer containing 10 mM TE (pH 7.5), 0.03% bromophenol blue, 0.03% xylene cyanol FF, 60% glycerol, and 60 mM EDTA was added in the sample following incubation for 30 min at 37°C. The electrophoresis was then performed at 100 V for 2 hours in 1× tris-acetate-EDTA buffer solution [0.04 M tris-acetate (pH 8.0) and 0.001 M EDTA] using a 1% (w/v) agarose gel. The bands were visualized using the ChemiDoc imaging system with ultraviolet light. All of the experiments were repeated at least twice with duplicates each time.

[1] = In vivo corneal toxicity, fluorescein staining; set-up: species or system mice; conditions: topical application to murine cornea
Protocol: In addition, the in vivo toxicity assessment of compound XT17 toward murine cornea was conducted through local application using 1% fluorescein sodium solution to stain the cornea.

[2] = for the free guanidine group, not the whole compound; cited from earlier work

Structure (SMILES): CC(C)=CCOc1cc(OCCCNC(=N)N)cc2oc3cc(OCCCNC(=N)N)ccc3c(=O)c12 [XT17]
- genes expressed (E. coli ATCC 25922): 4617 genes
- Log2FC clbN (colibactin non-ribosomal peptide synthetase ClbN) (E. coli ATCC 25922; vs untreated): -2.7305
- Log2FC cspE (transcription antiterminator/RNA stability regulator CspE) (E. coli ATCC 25922; vs untreated): -4.5456
- Log2FC dnaE (DNA polymerase III subunit alpha) (E. coli ATCC 25922; vs untreated): 2.4033
- Log2FC dnaN (DNA polymerase III subunit beta) (E. coli ATCC 25922; vs untreated): 2.4370
- Log2FC dnaQ (DNA polymerase III subunit epsilon) (E. coli ATCC 25922; vs untreated): 2.6769
- Log2FC dnaT (primosomal protein DnaT) (E. coli ATCC 25922; vs untreated): 1.8873
- Log2FC dnaX (DNA polymerase III subunit gamma/tau) (E. coli ATCC 25922; vs untreated): 1.3272
- Log2FC gyrA (DNA topoisomerase (ATP-hydrolyzing) subunit A) (E. coli ATCC 25922; vs untreated): 2.7733
- Log2FC gyrB (DNA topoisomerase (ATP-hydrolyzing) subunit B) (E. coli ATCC 25922; vs untreated): 2.8529
- Log2FC holB (DNA polymerase III subunit delta') (E. coli ATCC 25922; vs untreated): 3.5242
- Log2FC holC (DNA polymerase III subunit chi) (E. coli ATCC 25922; vs untreated): 1.8432
- Log2FC holD (DNA polymerase III subunit psi) (E. coli ATCC 25922; vs untreated): 2.6144
- Log2FC parC (DNA topoisomerase IV subunit A) (E. coli ATCC 25922; vs untreated): 2.5193
- Log2FC parE (DNA topoisomerase IV subunit B) (E. coli ATCC 25922; vs untreated): 2.3205
- Log2FC priA (primosomal protein N') (E. coli ATCC 25922; vs untreated): 3.3285
- Log2FC priB (primosomal replication protein N) (E. coli ATCC 25922; vs untreated): 5.8981
- Log2FC priC (primosomal replication protein N'') (E. coli ATCC 25922; vs untreated): 2.6334
- Log2FC recA (recombinase RecA) (E. coli ATCC 25922; vs untreated): 5.7854
- Log2FC recB (exodeoxyribonuclease V subunit beta) (E. coli ATCC 25922; vs untreated): 2.0328
- Log2FC recC (exodeoxyribonuclease V subunit gamma) (E. coli ATCC 25922; vs untreated): 2.4556
- Log2FC recF (DNA replication/repair protein RecF) (E. coli ATCC 25922; vs untreated): 1.6106
- Log2FC recG (ATP-dependent DNA helicase RecG) (E. coli ATCC 25922; vs untreated): 1.6673
- Log2FC recJ (single-stranded-DNA-specific exonuclease RecJ) (E. coli ATCC 25922; vs untreated): 4.2947
- Log2FC recO (DNA repair protein RecO) (E. coli ATCC 25922; vs untreated): 2.8669
- Log2FC recR (recombination mediator RecR) (E. coli ATCC 25922; vs untreated): 2.2758
- Log2FC ruvA (Holliday junction branch migration protein RuvA) (E. coli ATCC 25922; vs untreated): 3.9191
- Log2FC ruvB (Holliday junction branch migration DNA helicase RuvB) (E. coli ATCC 25922; vs untreated): 4.1938
- Log2FC ruvC (crossover junction endodeoxyribonuclease RuvC) (E. coli ATCC 25922; vs untreated): 2.7878
- Log2FC ssb1 (single-stranded DNA-binding protein SSB1) (E. coli ATCC 25922; vs untreated): 3.2652
- down-regulated genes (E. coli ATCC 25922; vs untreated): 348 genes
- up-regulated genes (E. coli ATCC 25922; vs untreated): 2885 genes
- differentially expressed genes (E. coli ATCC 25922; vs untreated, P < 0.05, absolute log2 fold change > 1): 3233 genes
- interaction with E. coli DNA (gel mobility shift) (E. coli DNA): able to directly interact with the E. coli DNA
- corneal damage (slit-lamp, fluorescein staining) [1]: no notable signs of corneal damage
- pKa [2]: 12.48
